In patent US20180296630A1, “METHODS AND COMPOSITIONS FOR PREVENTING OR TREATING OPHTHALMIC CONDITIONS” (Stealth BioTherapeutics Corp, priority 2012, published 2018):

What was measured:
[1] = test system: human retinal epithelial cells (HREC); assay: Survival of HRECs in high glucose (Annexin V/PI, flow cytometry); assay type: cell-based; settings: for survival ratio for HRECs (Q3): 24 hours
Description: Methods of HREC culture useful in the studies of the present invention are known. See generally, Li B, Tang S B, Zhang G, Chen J H, Li B J. Culture and characterization of human retinal capillary endothelial cell. Chin Ophthal Res 2005; 23: 20-2; Premanand C, Rema M, Sameer M Z, Sujatha M, Balasubramanyam M. Effect of curcumin on proliferation of human retinal endothelial cells under in vitro conditions. Invest Ophthalmol Vis Sci 2006; 47: 2179-84.
Briefly, HREC cells were divided into three groups: a normal control group; a group administered 30 mM glucose; and a group administered 30 mM glucose+D-Arg-2′,6′-Dmt-Lys-Phe-NH2. Survival of HRECs in high glucose co-treated with different concentrations of D-Arg-2′,6′-Dmt-Lys-Phe-NH2 (10 nM, 100 nM, 1 μM, 10 μM) was measured using an Annexin V+PI assay and flow cytometry. See generally, Koopman, G., Reutelingsperger, C. P., Kuijten, G. A. M., Keehnen, R. M. J., Pals, S. T., and van Oers, M. H. J. 1994. Annexin V for flow cytometric detection of phosphatidylserine expression on B cells undergoing apoptosis. Blood 84: 1415; Homburg, C. H., de Haas, M., von dem Borne, A. E., Verhoeven, A. J., Reutelingsperger, C. P., and Roos, D. 1995. Human neutrophils lose their surface Fc gamma RIII and acquire Annexin V binding sites during apoptosis in vitro. Blood 85: 532; Vermes, I., Haanen, C., Steffens-Nakken, H., and Reutelingsperger, C. 1995. A novel assay for apoptosis—flow cytometric detection of phosphatidylserine expression on early apoptotic cells using fluorescein labelled Annexin V. J. Immunol. Meth. 184: 39; Fadok, V. A., Voelker, D. R., Campbell, P. A., Cohen, J. J., Bratton, D. L., and Henson, P. M. 1992. Exposure of phosphatidylserine on the surface of apoptotic lymphocytes triggers specific recognition and removal by macrophages. J. Immunol. 148: 2207.
(§1) The survival of HRECs in high glucose co-treated with D-Arg-2′,6′-Dmt-Lys-Phe-NH2 was tested at 24 h and 48 h.

iHTM cells [2] = assay: MMP decline, sustained oxidative injury by H2O2, iHTM cells; assay type: cell-based, human; settings: then 200 μM H2O2 24 h
Description: (§2) The effects of D-Arg-2′,6′-Dmt-Lys-Phe-NH2 on sustained oxidative injury of GTM and HTM cells was examined. Cells were pre-treated with 10^−6, 10^−7, 10^−8M of D-Arg-2′,6′-Dmt-Lys-Phe-NH2 for 1 h, and then incubated with 200 μM H2O2 for 24 h to investigate the protective effect of D-Arg-2′,6′-Dmt-Lys-Phe-NH2 in sustained oxidative stress.

iHTM cells [3] = assay: ROS production, sustained oxidative injury by H2O2, iHTM cells; assay type: cell-based, human; settings: then 200 μM H2O2 24 h
Description: as §2

[4] = test system: streptozocin diabetic rats; assay: Quantitative MRI of the retina in diabetic rats; assay type: in vivo, SD rats
Description: 7, issue 1. Glycated hemoglobin and retinal thickness ex vivo (histology) will also be measured in control, diabetic groups and D-Arg-2′,6′-Dmt-Lys-Phe-NH2 treatment groups.
Diabetes is induced with intraperitoneal injection of streptozocin (60 mg/kg) within 5 minutes of its preparation in 0.01 M citrate buffer (pH 4.5) in male SD rats with body weights of approximately 200 g after overnight fast. Diabetes is verified 3 days later by the presence of plasma hyperglycemia (>300 mg/dl) and elevated urine volume (more than 60 ml/d) in nonfasted rats. Rat body weight and blood glucose levels are monitored weekly. Subtherapeutic levels of insulin (0-2 U neutral protamine Hagedorn insulin administered subcutaneously daily) is administered to maintain blood glucose levels between 450 and 550 mg/dl without urine ketones. Glycated hemoglobin is measured after 2 months of diabetes (Glyco-Tek affinity columns, kit 5351; Helena Laboratories, Beaumont, Tex.).
Nine month old diabetic rats are treated with D-Arg-2′,6′-Dmt-Lys-Phe-NH2 by injection, either intraperitoneal (IP) or subcutaneous (SC), with 1, 5, or 10 mg/kg D-Arg-2′,6′-Dmt-Lys-Phe-NH2. Injections are once/day. After 7 days of treatment, the retinas of the rats in the treatment and control groups are evaluated.
Male SD rats are examined by MRI by the methods of Berkowitz et al. Central retinal thickness at 2, 3, 4, 6, and 9 months after induction of diabetes is measured, and in age-matched non-diabetic controls. At day 7 after D-Arg-2′,6′-Dmt-Lys-Phe-NH2 treatment, rats are again evaluated via MRI according to the methods of Berkowitz et al.

GTM3 cells = assay: MMP decline, sustained oxidative injury by H2O2, GTM3 cells; assay type: cell-based, human; settings: then 200 μM H2O2 24 h
Description: as §2

[5] = test system: primary human retinal pigment epithelial (RPE) cells; assay: Viability of primary RPE cells incubated with peptide alone (MTT); assay type: cell-based; settings: different concentrations of peptide alone; 24 h
Description: Primary retinal pigment epithelial (RPE) cells were cultured to test the effects of the aromatic-cationic peptides of the invention in preventing or reducing oxidative damage in these cells. Methods useful for the study of primary retinal pigment epithelial cells have been described. See, Dunn et al., ARPE-19, A Human Retinal Pigment Epithelial Cell Line with Differentiated Properties, Experimental Eye Research, 1996, 62(2): 155-170. […] Primary cultured human RPE cells were incubated with different concentrations of D-Arg-2′,6′-Dmt-Lys-Phe-NH2 alone for a period of 24 h, and cell viability was determined by a MTT assay (FIG. 22).

[6] = test system: human retinal epithelial cells (HREC); assay: Intracellular ROS in HRECs exposed to 30 mM glucose (dihydroethidium); assay type: cell-based; settings: 100 nM, 24 h and 48 h
Description: FIGS. 2A-2F is a series of micrographs showing co-treatment with D-Arg-2′,6′-Dmt-Lys-Phe-NH2 (SS-31) reduced intracellular reactive oxygen species (ROS) in HRECs exposed to 30 mM glucose for 24 h and 48 h. Intracellular ROS was measured using dihydroethidium. 2A, 2D normal culture media; 2B, 2E 30 mM glucose; and 2C, 2F 30 mM glucose+D-Arg-2′,6′-Dmt-Lys-Phe-NH2 (SS-31) (100 nM) at 24 and 48 h, respectively.
as §1

Substance: D-Arg-2′,6′-Dmt-Lys-Phe-NH2
- survival ratio for HRECs (Q3) ([1]; 10 nM co-treatment with 30 mM glucose): 84.3%
- survival ratio for HRECs (Q3) ([1]; 100 nM co-treatment with 30 mM glucose): 90.7%
- survival ratio for HRECs (Q3) ([1]; 1 μM co-treatment with 30 mM glucose): 92.8%
- survival ratio for HRECs (Q3) ([1]; 10 μM co-treatment with 30 mM glucose): 94.3%
- survival of HRECs in high glucose ([1]; co-treatment, tested at 24 h and 48 h): significantly improved
- MMP Decline (iHTM cells [2]; 0.01 μM pre-treatment 1 h): −58.24 ± 2.62 %
- MMP Decline (iHTM cells [2]; 0.1 μM pre-treatment 1 h): −53.24 ± 2.52 %
- MMP Decline (iHTM cells [2]; 1 μM pre-treatment 1 h): −44.99 ± 2.19 %
- ROS Production (iHTM cells [3]; 0.01 μM pre-treatment 1 h): 114.30 ± 3.89 %
- ROS Production (iHTM cells [3]; 0.1 μM pre-treatment 1 h): 82.89 ± 3.70 %
- ROS Production (iHTM cells [3]; 1 μM pre-treatment 1 h): 36.91 ± 1.47 %
- Apparent diffusion coefficient ([4]; 1 mg/kg IP or SC injection): N to N+
- Intraretinal water content ([4]; 1 mg/kg IP or SC injection): N to N+
- Retinal thickness ([4]; 1 mg/kg IP or SC injection): N to N+
- Apparent diffusion coefficient ([4]; 5 mg/kg IP or SC injection): N to N+
- Intraretinal water content ([4]; 5 mg/kg IP or SC injection): N to N+
- Retinal thickness ([4]; 5 mg/kg IP or SC injection): N to N+
- Apparent diffusion coefficient ([4]; 10 mg/kg IP or SC injection): N to N+
- Intraretinal water content ([4]; 10 mg/kg IP or SC injection): N to N+
- Retinal thickness ([4]; 10 mg/kg IP or SC injection): N to N+
- MMP Decline (GTM3 cells; 0.01 μM pre-treatment 1 h): −31.33 ± 1.20 %
- MMP Decline (GTM3 cells; 0.1 μM pre-treatment 1 h): −29.33 ± 2.19 %
- MMP Decline (GTM3 cells; 1 μM pre-treatment 1 h): −24.33 ± 4.18 %
- cell viability (MTT assay) [5]: did not adversely effect these cells
- production of ROS [6]: reduced
